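These data come from cells grown in 96-well plates and exposed to compound for 48 hours at five concentrations. The concentration for 50% growth inhibition is given as GI50.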 Activity calls are given as the source filed them. Cut-off read from the data, not from the text of the source: active = GI50 up to about 1.1 µM and inactive = higher.
Tests used:
Assay in all cases: NCI tumour cell line growth inhibition, 48 h
SN12C = tested on: SN12C
NCI/ADR-RES = tested on: NCI/ADR-RES
DU-145 = tested on: DU-145
SF-539 = tested on: SF-539
HCT-15 = tested on: HCT-15
T47D = tested on: T47D
SW-620 = tested on: SW-620
OVCAR-4 = tested on: OVCAR-4
SNB-75 = tested on: SNB-75
MDA-N = tested on: MDA-N
OVCAR-3 = tested on: OVCAR-3
CCRF-CEM = tested on: CCRF-CEM
786-0 = tested on: 786-0
MCF7 = tested on: MCF7
MDA-MB-231 = tested on: MDA-MB-231
SNB-19 = tested on: SNB-19
SK-OV-3 = tested on: SK-OV-3
SK-MEL-28 = tested on: SK-MEL-28
LOX IMVI = tested on: LOX IMVI
HOP-92 = tested on: HOP-92

Compound | GI50 (SN12C) | GI50 (NCI/ADR-RES) | GI50 (DU-145) | GI50 (SF-539) | GI50 (HCT-15) [µM] | GI50 (T47D) | GI50 (SW-620) | GI50 (OVCAR-4) | GI50 (SNB-75) | GI50 (MDA-N) | GI50 (OVCAR-3) | GI50 (CCRF-CEM) | GI50 (786-0) | GI50 (MCF7) | GI50 (MDA-MB-231) | GI50 (SNB-19) | GI50 (SK-OV-3) | GI50 (SK-MEL-28) | GI50 (LOX IMVI) | GI50 (HOP-92)
C[S+]([O-])c1cc(=O)c2ccccc2s1 (stereo not given) | 5.79 µM (inactive) | 16.7 µM (inactive) | 18.7 µM (inactive) | 9.12 µM (inactive) | 3.03 | 2.52 µM (inactive) | 1.91 µM (inactive) | 3.03 µM (inactive) | 11.4 µM (inactive) | 3.05 µM (inactive) | 2.42 µM (inactive) | 1.7 µM (inactive) | 2.82 µM (inactive) | 5.42 µM (inactive) | 12.6 µM (inactive) | 18.4 µM (inactive) | 24.5 µM (inactive) | 4.2 µM (inactive) | 3.78 µM (inactive) | 2.94 µM (inactive)
COc1cc2c3cc1Oc1c(OC)c(OC)cc4c1C(=NCC4)Cc1ccc(cc1)Oc1cc(ccc1O)C[C@H]3N(C)CC2 | 22.9 µM (inactive) | 13.6 µM (inactive) | 25.4 µM (inactive) | 14.8 µM (inactive) | 12.2 | 21 µM (inactive) | 17.3 µM (inactive) | 16.1 µM (inactive) | 14.1 µM (inactive) | 16.6 µM (inactive) | 17.7 µM (inactive) | 30 µM (inactive) | 10.4 µM (inactive) | 25.8 µM (inactive) | 12.9 µM (inactive) | 23.4 µM (inactive) | 48.6 µM (inactive) | 16.7 µM (inactive) | 12.6 µM (inactive) | 13.6 µM (inactive)
CN(C)c1ccc(/C=C/C=c2/c3ccccc3n3c2cc(-c2ccccc2)[n+]3C)cc1 | 0.243 µM (active) | 3.43 µM (inactive) | 0.0931 µM (active) | 0.171 µM (active) | 0.488 | 0.0735 µM (active) | 0.0731 µM (active) | 0.414 µM (active) | 0.336 µM (active) | 0.234 µM (active) | 0.0746 µM (active) | 0.187 µM (active) | 0.252 µM (active) | 0.0935 µM (active) | 0.466 µM (active) | 0.127 µM (active) | 0.348 µM (active) | 0.459 µM (active) | 0.105 µM (active) | 0.318 µM (active)
Cc1ccc2nc3sc(=O)sc3nc2c1 [CHINOMETHIONAT] | 15.5 µM (inactive) | 14.8 µM (inactive) | > 100 µM (inactive) | 18.7 µM (inactive) | 15.3 | 83.6 µM (inactive) | 24.1 µM (inactive) | 13.7 µM (inactive) | 19.6 µM (inactive) | 17.4 µM (inactive) | 14.5 µM (inactive) | 31.5 µM (inactive) | 15.5 µM (inactive) | 17.6 µM (inactive) | 17.3 µM (inactive) | 18.2 µM (inactive) | 19.6 µM (inactive) | 17.9 µM (inactive) | 15 µM (inactive) | 15.5 µM (inactive)
O=C(c1ccccc1)c1ccc(-n2c3ccccc3c3ccc4c(c32)C(=O)C=CC4=O)cc1 | 9.08 µM (inactive) | 18.8 µM (inactive) | 10.5 µM (inactive) | 10.4 µM (inactive) | 11.3 | 3.1 µM (inactive) | 3.88 µM (inactive) | 16.3 µM (inactive) | 22.7 µM (inactive) | 16.5 µM (inactive) | 7.59 µM (inactive) | 1.11 µM (active) | 2.06 µM (inactive) | 3.21 µM (inactive) | 8.24 µM (inactive) | 20.9 µM (inactive) | 20.9 µM (inactive) | 8.83 µM (inactive) | 3.41 µM (inactive) | 3.48 µM (inactive)
COc1cc(-c2cc(=O)c3c(OC)c(OC)c(OC)cc3o2)c(OC)c(OC)c1OC | > 75 µM (inactive) | 36.9 µM (inactive) | > 75 µM (inactive) | > 75 µM (inactive) | > 75 | 49.3 µM (inactive) | > 75 µM (inactive) | 41.1 µM (inactive) | > 75 µM (inactive) | > 75 µM (inactive) | 51.2 µM (inactive) | 65.2 µM (inactive) | > 75 µM (inactive) | > 75 µM (inactive) | 63.4 µM (inactive) | > 75 µM (inactive) | > 75 µM (inactive) | > 75 µM (inactive) | 63.5 µM (inactive) | 14 µM (inactive)
O=C1CC(O)c2c(Cl)sc(Cl)c21 (stereo not given) | 11.3 µM (inactive) | 22.9 µM (inactive) | 12.9 µM (inactive) | 9.04 µM (inactive) | 3.39 | 5.89 µM (inactive) | 3.13 µM (inactive) | 18.9 µM (inactive) | 14.4 µM (inactive) | 9.33 µM (inactive) | 5.4 µM (inactive) | 1.7 µM (inactive) | 4.14 µM (inactive) | 5.45 µM (inactive) | 27.7 µM (inactive) | 21.7 µM (inactive) | 22.5 µM (inactive) | 6.46 µM (inactive) | 2.08 µM (inactive) | 3.11 µM (inactive)
C[C@]12CC/C(=N\OCCN3CCCCC3)C=C1CCC1C2CC[C@@]2(C)C1CC[C@]2(C)O (stereo not given in full) | 15.3 µM (inactive) | 5.27 µM (inactive) | 13.2 µM (inactive) | 7.35 µM (inactive) | 5 | 13.1 µM (inactive) | 5.65 µM (inactive) | 19.8 µM (inactive) | 7.35 µM (inactive) | 3.32 µM (inactive) | 17 µM (inactive) | 3.2 µM (inactive) | 5.14 µM (inactive) | 4.75 µM (inactive) | 11.7 µM (inactive) | 11.9 µM (inactive) | 16.7 µM (inactive) | 11.2 µM (inactive) | 4.11 µM (inactive) | 8.41 µM (inactive)
C#CCn1c(=O)c(Cl)cn(/C(=C/C(=O)OCC)C(=O)OCC)c1=O | 22.4 µM (inactive) | 26 µM (inactive) | 18.6 µM (inactive) | 6.11 µM (inactive) | 6.79 | 2.34 µM (inactive) | 2.22 µM (inactive) | 17.2 µM (inactive) | 14.7 µM (inactive) | 15.3 µM (inactive) | 3.48 µM (inactive) | 5.2 µM (inactive) | 1.98 µM (inactive) | 8.45 µM (inactive) | 18.2 µM (inactive) | 39.8 µM (inactive) | 31.6 µM (inactive) | 19 µM (inactive) | 8.32 µM (inactive) | 9.77 µM (inactive)
O=C([O-])C[n+]1ccccc1.c1ccncc1 | > 100 µM (inactive) | > 100 µM (inactive) | > 100 µM (inactive) | > 100 µM (inactive) | > 100 | > 100 µM (inactive) | > 100 µM (inactive) | > 100 µM (inactive) | > 100 µM (inactive) | > 100 µM (inactive) | > 100 µM (inactive) | > 100 µM (inactive) | > 100 µM (inactive) | > 100 µM (inactive) | > 100 µM (inactive) | > 100 µM (inactive) | > 100 µM (inactive) | > 100 µM (inactive) | > 100 µM (inactive) | > 100 µM (inactive)
O=P12N(CCN1c1ccccc1)CCN2c1ccccc1 | > 100 µM (inactive) | > 100 µM (inactive) | > 100 µM (inactive) | > 100 µM (inactive) | > 100 | > 100 µM (inactive) | > 100 µM (inactive) | > 100 µM (inactive) | 63.7 µM (inactive) | > 100 µM (inactive) | > 100 µM (inactive) | > 100 µM (inactive) | > 100 µM (inactive) | > 100 µM (inactive) | > 100 µM (inactive) | > 100 µM (inactive) | > 100 µM (inactive) | > 100 µM (inactive) | > 100 µM (inactive) | 80.7 µM (inactive)
